In US12209102B2, “Heterocyclic compounds and uses thereof” (Kumquat Biosciences Inc., priority 2022, dated 2025) one finds IC50 data, which are given here for 14 compounds.

Bounds are passed on as bounds.

Assay [1] relates to GP2D cells. Briefly: Ras cellular assay, growth of cells with K-Ras G12D mutation (CellTiter-Glo). The class given is cell-based. The note with it: cell growth, Example 9, G12D mutation, read-out: IC50 against GP2D cells. Background: Cellular ATP, detected with luciferase, serves as a proxy for viable cell number.
For assay [2], the system named is SW620 cells. Description: Ras cellular assay, growth of cells with K-Ras G12V mutation (CellTiter-Glo). In kind it is cell-based. The note with it: Homo sapiens, SW-620; cell growth, Example 9, G12V mutation; read-out: IC50 against SW620 cells. In outline:
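IC50 values came from a four-parameter fit of CellTiter-Glo viability, read roughly 6 days after dosing with e.g. a 10-point threefold dilution series. G12V-mutant SW620 cells (e.g. 800 per well) had been plated the previous day in RPMI-1640/10% heat-inactivated FBS, on tissue culture-treated or ultra-low attachment plates.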

Assay [3] concerns the target T1, K-Ras WT (Homo sapiens, UniProt P01116).
T1 construct: made in house; host or cells: E. coli BL21 (DE3)
Briefly: HTRF resonance energy transfer assay, K-Ras WT / SOS1 interaction. The class given is biochemical. The note with it: HTRF assay of Example 5; read-out: IC50 against K-Ras WT. In short, it runs like this: (§1)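 Buffer about 5 mM HEPES pH 7.4 with ~150 mM NaCl, ~1 mM DTT, 0.05% BSA, 0.0025% (v/v) Igepal. Protein constructs used at molarity matching the IC50 range studied (e.g. ~500 nM). FRET between tagged K-Ras and hSOS1 measured after short incubation.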

The target of assay [4] is T2, K-Ras G12V (Homo sapiens, UniProt P01116, G12V).
T2 construct: made in house; host or cells: E. coli BL21 (DE3)
T2 sequence (P01116 1-188 isoform P01116-2 G12V): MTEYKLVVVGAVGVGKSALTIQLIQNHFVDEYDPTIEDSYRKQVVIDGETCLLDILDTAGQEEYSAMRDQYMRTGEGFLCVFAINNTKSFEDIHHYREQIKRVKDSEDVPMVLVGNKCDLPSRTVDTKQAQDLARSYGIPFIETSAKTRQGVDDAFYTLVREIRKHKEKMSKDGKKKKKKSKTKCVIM
Briefly: HTRF resonance energy transfer assay, K-Ras G12V / SOS1 interaction. The note with it: HTRF assay of Example 5; read-out: IC50 against K-Ras G12V. In kind it is biochemical. In outline: as §1

Assay [5] has as its target T3, K-Ras G12S (Homo sapiens, UniProt P01116, G12S).
T3 construct: made in house; host or cells: E. coli BL21 (DE3)
Description: HTRF resonance energy transfer assay, K-Ras G12S / SOS1 interaction. In kind it is biochemical. The note with it: HTRF assay of Example 5; read-out: IC50 against K-Ras G12S. In short, it runs like this:
as §1

Assay [6] concerns the target T4, K-Ras G12D (Homo sapiens, UniProt P01116, G12D).
T4 construct: made in house; host or cells: E. coli BL21 (DE3)
Description: HTRF resonance energy transfer assay, K-Ras G12D / SOS1 interaction. The class given is biochemical. The note with it: HTRF assay of Example 5; read-out: IC50 against K-Ras G12D. In outline:
as §1
For orientation: In TR-FRET formats the signal depends on donor and acceptor labels being close together.

T3 sequence (P01116 1-188 isoform P01116-2 G12S): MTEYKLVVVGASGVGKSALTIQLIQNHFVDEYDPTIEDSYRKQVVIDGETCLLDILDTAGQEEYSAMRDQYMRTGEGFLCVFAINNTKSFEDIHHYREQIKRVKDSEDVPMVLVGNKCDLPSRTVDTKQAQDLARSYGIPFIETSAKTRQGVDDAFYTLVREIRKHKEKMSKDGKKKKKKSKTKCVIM
T1 sequence (P01116 1-188 isoform P01116-2): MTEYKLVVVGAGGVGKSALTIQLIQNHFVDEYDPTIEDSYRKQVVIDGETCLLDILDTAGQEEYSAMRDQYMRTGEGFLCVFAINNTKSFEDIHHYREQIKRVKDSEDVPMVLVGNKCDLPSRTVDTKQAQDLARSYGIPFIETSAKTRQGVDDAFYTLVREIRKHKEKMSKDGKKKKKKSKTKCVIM
T4 sequence (P01116 1-188 isoform P01116-2 G12D): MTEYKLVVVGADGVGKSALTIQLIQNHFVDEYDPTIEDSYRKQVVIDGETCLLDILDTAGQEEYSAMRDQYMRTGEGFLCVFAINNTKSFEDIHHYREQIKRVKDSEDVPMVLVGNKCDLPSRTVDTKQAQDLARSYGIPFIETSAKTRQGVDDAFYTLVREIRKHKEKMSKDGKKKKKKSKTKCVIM

For orientation: IC50 means the concentration that gives 50% inhibition. On to `C=C[C@H]1COc2c(Cl)c(-c3ccc(F)c4sc(N)c(C#N)c34)c(F)c3nc(OC[C@@]45CCCN4C[C@H](F)C5)nc(c23)N1CCC(F)F` (single isomer, unassigned) [Compound 727], for which the values for the IC50 in assay [1] and in assay [2] were less than 500 nM and less than 5000 nM, respectively.

In the case of `N#Cc1c(N)sc2c(F)ccc(-c3c(Cl)c4c5c(nc(OC[C@@]67CCCN6C[C@H](F)C7)nc5c3F)N(C3CCOC3)[C@@H](C3(F)CC3)CO4)c12` (single isomer, unassigned) [Compound 772], the IC50 was less than 100 nM in assay [3]; less than 100 nM in assay [4]; less than 500 nM in assay [1]; less than 5000 nM in assay [2]; less than 100 nM in assay [5]; less than 100 nM in assay [6].

Consider `C=C[C@H]1COc2c(Cl)c(-c3ccc(F)c4sc(N)c(C#N)c34)c(F)c3nc(OC[C@@]45CCCN4C[C@H](F)C5)nc(c23)N1C1CCOC1` (single isomer, unassigned) [Compound 980], for which the IC50 was less than 100 nM in assay [3]; less than 100 nM in assay [4]; less than 500 nM in assay [1]; less than 5000 nM in assay [2]; less than 100 nM in assay [5]; less than 100 nM in assay [6].

On to `CN(C)C1(CN2CCOc3c(Cl)c(-c4ccc(F)c5sc(N)c(C#N)c45)c(F)c4nc(OC[C@@]56CCCN5C[C@H](F)C6)nc2c34)CCC1` [Compound 606, 2-amino-4-(8-chloro-4-((1-(dimethylamino)cyclobutyl)methyl)-10-fluoro-2-(((2R,7aS)-2-fluorotetrahydro-1H-pyrrolizin-7a(5H)-yl)methoxy)-5,6-dihydro-4H-[1,4]oxazepino[5,6,7-de]quinazolin-9-yl)-7-fluorobenzo[b]thiophene-3-carbonitrile], for which the IC50 in assay [3] is less than 100 nM; in assay [4] it was less than 100 nM; in assay [1], less than 500 nM; in assay [2], less than 5000 nM; in assay [5], less than 100 nM; in assay [6], less than 100 nM.

In the case of `COCCN1c2nc(OC[C@@]34CCCN3C[C@H](F)C4)nc3c(F)c(-c4ccc(F)c5sc(N)c(C#N)c45)c(Cl)c(c23)OC[C@@H]1CNC=O` [Compound 607, N-(((5S)-9-(2-amino-3-cyano-7-fluorobenzo[b]thiophen-4-yl)-8-chloro-10-fluoro-2-(((2R,7aS)-2-fluorotetrahydro-1H-pyrrolizin-7a(5H)-yl)methoxy)-4-(2-methoxyethyl)-5,6-dihydro-4H-[1,4]oxazepino[5,6,7-de]quinazolin-5-yl)methyl)formamide], the IC50 in assay [3] is less than 100 nM; in assay [4] it was less than 100 nM; in assay [1], less than 500 nM; in assay [2], less than 5000 nM; in assay [5], less than 100 nM; in assay [6], less than 100 nM.

As to `N#Cc1c(N)sc2c(F)ccc(-c3c(Cl)c4c5c(nc(OC[C@@]67CCCN6C[C@H](F)C7)nc5c3F)N(CCC(F)F)[C@@H](CNC=O)CO4)c12` [Compound 614, N-(((5S)-9-(2-amino-3-cyano-7-fluorobenzo[b]thiophen-4-yl)-8-chloro-4-(3,3-difluoropropyl)-10-fluoro-2-(((2R,7aS)-2-fluorotetrahydro-1H-pyrrolizin-7a(5H)-yl)methoxy)-5,6-dihydro-4H-[1,4]oxazepino[5,6,7-de]quinazolin-5-yl)methyl)formamide], the IC50 in assay [3] is less than 100 nM; in assay [4] it was less than 100 nM; in assay [1], less than 500 nM; in assay [2], less than 5000 nM; in assay [5], less than 100 nM; in assay [6] it was less than 100 nM.

As to `N#Cc1c(N)sc2c(F)ccc(-c3c(Cl)c4c5c(nc(OC[C@@]67CCCN6C[C@H](F)C7)nc5c3F)N[C@@H](C(F)F)CO4)c12` [Compound 618, 2-amino-4-((R)-8-chloro-5-(difluoromethyl)-10-fluoro-2-(((2R,7aS)-2-fluorotetrahydro-1H-pyrrolizin-7a(5H)-yl)methoxy)-5,6-dihydro-4H-[1,4]oxazepino[5,6,7-de]quinazolin-9-yl)-7-fluorobenzo[b]thiophene-3-carbonitrile], the IC50 in assay [3] was less than 100 nM; in assay [4] it was less than 100 nM; in assay [1], less than 500 nM; in assay [2], less than 5000 nM; in assay [5] it was less than 100 nM; in assay [6] it was less than 100 nM.

As for `N#Cc1c(N)sc2c(F)ccc(-c3c(Cl)c4c5c(nc(OC[C@@]67CCCN6C[C@H](F)C7)nc5c3F)N(CC(F)F)[C@@H](C3(O)CC3)CO4)c12` [Compound 707, 2-amino-4-((R)-8-chloro-4-(2,2-difluoroethyl)-10-fluoro-2-(((2R,7aS)-2-fluorotetrahydro-1H-pyrrolizin-7a(5H)-yl)methoxy)-5-(1-hydroxycyclopropyl)-5,6-dihydro-4H-[1,4]oxazepino[5,6,7-de]quinazolin-9-yl)-7-fluorobenzo[b]thiophene-3-carbonitrile], the IC50 in assay [3] was less than 100 nM; in assay [4] it was less than 100 nM; in assay [1], less than 500 nM; in assay [5] it was less than 100 nM; in assay [6], less than 100 nM.

Take `C#C[C@H]1COc2c(Cl)c(-c3ccc(F)c4sc(N)c(C#N)c34)c(F)c3nc(OC[C@@]45CCCN4C[C@H](F)C5)nc(c23)N1CC(F)F` [Compound 730, 2-amino-4-((5S)-8-chloro-4-(2,2-difluoroethyl)-5-ethynyl-10-fluoro-2-(((2R,7aS)-2-fluorotetrahydro-1H-pyrrolizin-7a(5H)-yl)methoxy)-5,6-dihydro-4H-[1,4]oxazepino[5,6,7-de]quinazolin-9-yl)-7-fluorobenzo[b]thiophene-3-carbonitrile]: the IC50 in assay [1] was less than 500 nM; in assay [2] it was less than 5000 nM.

Consider `C=C(C)[C@H]1COc2c(Cl)c(-c3ccc(F)c4sc(N)c(C#N)c34)c(F)c3nc(OC[C@@]45CCCN4C[C@H](F)C5)nc(c23)N1CC(F)F` [Compound 879, 2-amino-4-((5S)-8-chloro-4-(2,2-difluoroethyl)-10-fluoro-2-(((2R,7aS)-2-fluorotetrahydro-1H-pyrrolizin-7a(5H)-yl)methoxy)-5-(prop-1-en-2-yl)-5,6-dihydro-4H-[1,4]oxazepino[5,6,7-de]quinazolin-9-yl)-7-fluorobenzo[b]thiophene-3-carbonitrile], for which the IC50 is less than 100 nM in assay [3]; less than 100 nM in assay [4]; less than 500 nM in assay [1]; less than 100 nM in assay [5]; less than 100 nM in assay [6].

With `CNCCN1CCOc2c(Cl)c(-c3ccc(F)c4sc(N)c(C#N)c34)c(F)c3nc(OC[C@@]45CCCN4C[C@H](F)C5)nc1c23` [Compound 961, 2-amino-4-(8-chloro-10-fluoro-2-(((2R,7aS)-2-fluorotetrahydro-1H-pyrrolizin-7a(5H)-yl)methoxy)-4-(2-(methylamino)ethyl)-5,6-dihydro-4H-[1,4]oxazepino[5,6,7-de]quinazolin-9-yl)-7-fluorobenzo[b]thiophene-3-carbonitrile], the IC50 was less than 100 nM in assay [3]; less than 100 nM in assay [4]; less than 500 nM in assay [1]; less than 100 nM in assay [5]; less than 100 nM in assay [6].

As to `C[C@H]1COc2c(Cl)c(-c3ccc(F)c4sc(N)c(C#N)c34)c(F)c3nc(OC[C@@]45CCCN4C[C@H](F)C5)nc(c23)N1CC(F)F` [Compound 1088, 2-amino-4-((5S)-8-chloro-4-(2,2-difluoroethyl)-10-fluoro-2-(((2R,7aS)-2-fluorotetrahydro-1H-pyrrolizin-7a(5H)-yl)methoxy)-5-methyl-5,6-dihydro-4H-[1,4]oxazepino[5,6,7-de]quinazolin-9-yl)-7-fluorobenzo[b]thiophene-3-carbonitrile], the IC50 in assay [3] is less than 100 nM; in assay [4], less than 100 nM; in assay [1] it was less than 500 nM; in assay [2] it was less than 5000 nM; in assay [5], less than 100 nM.

`N#Cc1c(N)sc2c(F)ccc(-c3c(Cl)c4c5c(nc(OC[C@@]67CCCN6C[C@H](F)C7)nc5c3F)N(CC(F)F)[C@@H](C3CC3C#N)CO4)c12` (stereo partly drawn) [Compound 1109, 2-amino-4-((5S)-8-chloro-5-(2-cyanocyclopropyl)-4-(2,2-difluoroethyl)-10-fluoro-2-(((2R,7aS)-2-fluorotetrahydro-1H-pyrrolizin-7a(5H)-yl)methoxy)-5,6-dihydro-4H-[1,4]oxazepino[5,6,7-de]quinazolin-9-yl)-7-fluorobenzo[b]thiophene-3-carbonitrile]: the IC50 was less than 500 nM in assay [1] and less than 5000 nM in assay [2].

Turning to `N#Cc1c(N)sc2c(F)ccc(-c3c(Cl)c4c5c(nc(OC[C@@]67CCCN6C[C@H](F)C7)nc5c3F)N([C@@H]3CCNC3)CCO4)c12` [Compound 1124, 2-amino-4-(8-chloro-10-fluoro-2-(((2R,7aS)-2-fluorotetrahydro-1H-pyrrolizin-7a(5H)-yl)methoxy)-4-((R)-pyrrolidin-3-yl)-5,6-dihydro-4H-[1,4]oxazepino[5,6,7-de]quinazolin-9-yl)-7-fluorobenzo[b]thiophene-3-carbonitrile], the IC50 in assay [3] was less than 100 nM; in assay [4], less than 100 nM; in assay [1] it was less than 500 nM; in assay [5], less than 100 nM; in assay [6], less than 100 nM.
